Reference: paper PMC3113977, “Structural characteristics and antiviral activity of multiple peptides derived from MDV glycoproteins B and H” (Virology Journal, 2011)
Where a SMILES comes first, the peptide text is derived from it.

Assays:
[1] = test system: MDV; design: species or system Marek's disease virus (MDV) strain RB1B; details: in vivo
[2] = Gel filtration (GF) analysis of oligomeric state; format: physicochemical; details: for MW of polymer (GF peak molecular mass): Superdex G75, 20 mM Tris-HCl pH 8.0, estimated against protein standards; for Oligomeric state: aqueous solution, Superdex G75, 20 mM Tris-HCl pH 8.0, GF peak mass versus MS monomer mass
Protocol: Figure 5 GF results and structural analyses of five peptides. (top) GF analysis of peptides. The purified peptides were loaded onto the Superdex G75 column in a buffer solution of 20 mM Tris-HCl, pH 8.0. The peak molecular mass was estimated by comparison with the protein standards running on the same column. The clear peak of gHH1 occurred at about 12.1 kDa. This molecular mass matches the approximate sum of four molecules, indicating the formation of the homotetrameric structure. The peak of gHH2 occurred at about 7.2 kDa, indicating the formation of the homodimeric structure. The peak of gHH3 occurred at about 3.8 kDa, indicating the monomeric state. The peak of gHH5 occurred at about 9.1 kDa, indicating the formation of the homotrimeric structure. The peak of gBH1 occurred at about 10.7 kDa, indicating the formation of the homotrimeric structure. (bottom) Sequences and calculated oligomeric states of gHH1, gHH2, gHH3, gHH5, and gBH1 in aqueous solution. TEXT PRINTED IN THE PICTURE: gHH1: MW of monomer: 3184 Da; MW of polymer: 12.1 kDa; Oligomeric state: 4 (tetramer) | gHH2: MW of monomer: 3623 Da; MW of polymer: 7.2 kDa; Oligomeric state: 2 (dimer) | gHH3: MW of monomer: 3795 Da; MW of polymer: 3.8 kDa; Oligomeric state: 1 (monomer) | gHH5: MW of monomer: 3002 Da; MW of polymer: 9.1 kDa; Oligomeric state: 3 (trimer) | gBH1: MW of monomer: 3303 Da; MW of polymer: 10.7 kDa; Oligomeric state: 3 (trimer)
The purified cleaved peptides were loaded onto the Superdex G75 column in a solution buffer of 20 mM Tris-HCl, pH 8.0. The peak molecular mass was estimated by comparison with protein standards running on the same column. The peak fractions were collected and analysed by 15% SDS-PAGE. The analytical column was calibrated using a series of individual runs of standard molecular mass proteins as markers including bovine serum albumin (68 kDa), egg white albumin (43 kDa), […] (13.7 kDa), aprotinin (6.5 kDa), antimicrobial peptides (5 kDa), and vitamin B12 (1.4 kDa).

[3] = test system: MDV; format: cell-based, Marek's disease virus (MDV) strain RB1B

CC[C@H](C)[C@H](NC(=O)[C@H](CCC(=O)O)NC(=O)[C@H](CCSC)NC(=O)[C@H](CC(=O)O)NC(=O)[C@H](CO)NC(=O)[C@H](C)NC(=O)[C@H](CC(N)=O)NC(=O)[C@H](CCSC)NC(=O)[C@@H](N)Cc1c[nH]cn1)C(=O)N[C@@H](CCCCN)C(=O)N[C@@H](CO)C(=O)N[C@@H](Cc1ccc(O)cc1)C(=O)N[C@H](C(=O)N[C@@H](CC(N)=O)C(=O)N[C@@H](CCSC)C(=O)N[C@H](C(=O)N[C@@H](CCC(=O)O)C(=O)N[C@@H](CO)C(=O)N[C@H](C(=O)N[C@@H](CCC(=O)O)C(=O)N[C@@H](CCC(=O)O)C(=O)N[C@@H](CO)C(=O)N[C@@H](CO)C(=O)N[C@@H](CC(N)=O)C(=O)N[C@@H](Cc1ccc(O)cc1)C(=O)N[C@@H](CC(=O)O)C(=O)N[C@@H](Cc1ccccc1)C(=O)O)C(C)C)[C@@H](C)CC)[C@@H](C)CC [gHH1] (H-HMNASDMEIKSYINMIESVEESSNYDF-OH; N-terminus and C-terminus assumed)
lesion formation on CAMs [1]: completely inhibited
lesion formation on CAMs (words) [1]: significantly able to reduce lesion formation
MW of polymer (GF peak molecular mass) [2]: 12.1 kDa
Oligomeric state [2]: 4
inhibition of plaque formation [3]: 100%
plaque formation [3]: completely inhibited

CC[C@H](C)[C@H](NC(=O)[C@H](CCCCN)NC(=O)[C@@H](NC(=O)[C@H](Cc1ccc(O)cc1)NC(=O)[C@H](CCSC)NC(=O)[C@H](CCC(=O)O)NC(=O)[C@H](CCC(N)=O)NC(=O)[C@@H](NC(=O)[C@@H](NC(=O)[C@H](CC(C)C)NC(=O)[C@H](CCC(=O)O)NC(=O)[C@@H](NC(=O)[C@H](C)NC(=O)[C@@H](NC(=O)[C@@H](NC(=O)[C@H](Cc1c[nH]cn1)NC(=O)[C@H](CCC(=O)O)NC(=O)[C@H](CCC(=O)O)NC(=O)[C@@H](NC(=O)[C@@H](N)CS)[C@@H](C)O)[C@@H](C)CC)C(C)C)[C@@H](C)O)C(C)C)[C@@H](C)CC)[C@@H](C)CC)C(=O)N[C@@H](CC(N)=O)C(=O)N[C@H](C(=O)N[C@@H](CCCCN)C(=O)N[C@@H](CC(N)=O)C(=O)N[C@@H](CO)C(=O)N1CCC[C@H]1C(=O)O)C(C)C [gHH5] (H-CTEEHIVATELVIQEMYIKINVKNSP-OH; N-terminus and C-terminus assumed)
lesion formation on CAMs (words) [1]: significantly able to reduce lesion formation
MW of polymer (GF peak molecular mass) [2]: 9.1 kDa
Oligomeric state [2]: 3
plaque formation [3]: ~13%

CC[C@H](C)[C@H](NC(=O)[C@H](C)NC(=O)[C@H](C)NC(=O)[C@H](CCC(=O)O)NC(=O)[C@H](C)NC(=O)[C@H](CCC(=O)O)NC(=O)[C@H](CCCNC(=N)N)NC(=O)[C@H](CCCCN)NC(=O)[C@@H](NC(=O)[C@H](CS)NC(=O)[C@H](CCC(N)=O)NC(=O)CNC(=O)[C@H](CC(C)C)NC(=O)[C@@H](NC(=O)[C@@H](NC(=O)[C@@H](N)CCCNC(=N)N)[C@@H](C)CC)[C@@H](C)CC)[C@@H](C)CC)C(=O)N[C@@H](CCC(=O)O)C(=O)N[C@@H](CCC(N)=O)C(=O)N[C@H](C(=O)N[C@@H](Cc1ccccc1)C(=O)N[C@@H](CCCNC(=N)N)C(=O)N[C@H](C(=O)N[C@@H](CCCCN)C(=O)N[C@@H](Cc1ccc(O)cc1)C(=O)N[C@@H](CC(N)=O)C(=O)N[C@@H](CC(=O)O)C(=O)N[C@@H](CO)C(=O)N[C@@H](Cc1c[nH]cn1)C(=O)O)[C@@H](C)O)[C@@H](C)CC [gBH1]
lesion formation on CAMs (words) [1]: significantly able to reduce lesion formation
MW of polymer (GF peak molecular mass) [2]: 10.7 kDa
Oligomeric state [2]: 3
plaque formation [3]: ~12%

CC[C@H](C)[C@H](NC(=O)[C@H](CO)NC(=O)[C@H](CC(C)C)NC(=O)[C@H](CO)NC(=O)[C@H](C)NC(=O)[C@@H](NC(=O)[C@H](CC(N)=O)NC(=O)[C@H](CCCCN)NC(=O)[C@H](CO)NC(=O)[C@H](C)NC(=O)[C@H](CC(N)=O)NC(=O)[C@@H](NC(=O)[C@@H](NC(=O)[C@@H](NC(=O)[C@H](CCCCN)NC(=O)[C@H](CCCNC(=N)N)NC(=O)[C@@H](NC(=O)[C@H](CC(C)C)NC(=O)[C@H](CO)NC(=O)[C@H](CCCCN)NC(=O)[C@@H](NC(=O)[C@@H](NC(=O)[C@H](CC(=O)O)NC(=O)[C@H](C)NC(=O)[C@@H](N)CC(N)=O)[C@@H](C)CC)[C@@H](C)CC)[C@@H](C)CC)[C@@H](C)O)[C@@H](C)CC)[C@@H](C)CC)[C@@H](C)O)C(=O)N[C@@H](CC(C)C)C(=O)N[C@@H](CCC(N)=O)C(=O)N[C@@H](Cc1c[nH]cn1)C(=O)N[C@@H](CC(C)C)C(=O)N[C@@H](Cc1ccc(O)cc1)C(=O)N[C@H](C(=O)N[C@@H](CC(C)C)C(=O)N[C@@H](CCCNC(=N)N)C(=O)N[C@@H](CO)C(=O)O)C(C)C [gHH3] (H-NADIIKSLIRKTIINASKNTASLSILQHLYVLRS-OH; N-terminus and C-terminus assumed)
lesion formation on CAMs (words) [1]: significantly able to reduce lesion formation
MW of polymer (GF peak molecular mass) [2]: 3.8 kDa
Oligomeric state [2]: 1
plaque formation [3]: ~20%

CC[C@H](C)[C@H](NC(=O)[C@H](Cc1ccc(O)cc1)NC(=O)CNC(=O)[C@H](CO)NC(=O)[C@H](CCC(N)=O)NC(=O)[C@H](Cc1ccccc1)NC(=O)[C@H](C)NC(=O)[C@H](CC(N)=O)NC(=O)[C@H](CCCNC(=N)N)NC(=O)[C@@H](NC(=O)[C@H](CO)NC(=O)[C@H](C)NC(=O)[C@@H](NC(=O)[C@H](CC(C)C)NC(=O)[C@H](CO)NC(=O)[C@H](CCSC)NC(=O)[C@H](Cc1ccccc1)NC(=O)[C@H](CC(C)C)NC(=O)[C@H](CCCNC(=N)N)NC(=O)[C@@H](NC(=O)[C@@H](NC(=O)[C@@H](NC(=O)[C@@H](N)C(C)C)C(C)C)[C@@H](C)O)[C@@H](C)O)C(C)C)C(C)C)C(=O)N[C@@H](CO)C(=O)N[C@@H](Cc1ccccc1)C(=O)N[C@@H](CC(=O)O)C(=O)N[C@@H](CCC(=O)O)C(=O)N[C@H](C(=O)N[C@H](C(=O)N[C@@H](CCCCN)C(=O)N[C@H](C(=O)N[C@@H](CCC(=O)O)C(=O)O)[C@@H](C)O)[C@@H](C)CC)[C@@H](C)CC [gHH2] (H-VVTTRLFMSLVASVRNAFQSGYISFDEIIKTE-OH; N-terminus and C-terminus assumed)
lesion formation on CAMs (words) [1]: significantly able to reduce lesion formation
MW of polymer (GF peak molecular mass) [2]: 7.2 kDa
Oligomeric state [2]: 2
plaque formation (result in words) [3]: completely inhibited
